Broadly, the IC50 is the concentration needed to halve the response being measured.

These results are taken from patent US9999650B2, “Peptide and peptidomimetic inhibitors” (Ra Pharmaceuticals, Inc., priority 2012, dated 2018).

Numbered stars: 1 amine (or outer) side, 2 acyl side, 3 side chain; on linkers, the order of the positions; unused ones are H or OH. Bridge positions count the residues as written; N and C are the ends. Square brackets hold non-standard residues; d marks the D form. Ends that are not written are not given here. Peptide text beside a SMILES is read from it. X1 = O=C(C(N[*:1])C1CCc2ccccc2C1)[*:2]; X3 = O=C(C(Cc1ccc(Br)s1)N[*:1])[*:2]; mXylylene = c1cc(C[*:1])cc(C[*:2])c1; dPhg = N[C@@H](C(=O)O)c1ccccc1; Chg = N[C@H](C(=O)O)C1CCCCC1; Pen = CC(C)(S)[C@H](N)C(=O)O; Phg = N[C@H](C(=O)O)c1ccccc1; Tle = CC(C)(C)[C@H](N)C(=O)O; αMeP = C[C@@]1(C(=O)O)CCCN1; Ac5c = NC1(C(=O)O)CCCC1; Nva = CCC[C@H](N)C(=O)O; Aib = CC(C)(N)C(=O)O; Mpa = O=C(O)CCS Where only a bound is given, the exact number is not on record here.

This assay deals with T1, human plasma kallikrein (Homo sapiens, UniProt P03952).
T1 construct: purchased Enzyme Research Laboratories HPKa 1303
T1 sequence (P03952 20-390 limits assumed): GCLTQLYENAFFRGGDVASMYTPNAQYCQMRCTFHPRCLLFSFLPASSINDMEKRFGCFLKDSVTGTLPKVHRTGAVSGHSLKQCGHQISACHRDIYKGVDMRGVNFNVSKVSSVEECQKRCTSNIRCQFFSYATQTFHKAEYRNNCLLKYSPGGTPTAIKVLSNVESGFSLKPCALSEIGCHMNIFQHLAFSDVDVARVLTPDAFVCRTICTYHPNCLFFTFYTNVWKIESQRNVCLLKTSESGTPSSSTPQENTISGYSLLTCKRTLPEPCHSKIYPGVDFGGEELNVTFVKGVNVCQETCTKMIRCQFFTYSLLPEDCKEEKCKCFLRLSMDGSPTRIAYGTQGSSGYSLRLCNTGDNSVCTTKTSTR
T1 sequence (P03952 391-638 limits assumed): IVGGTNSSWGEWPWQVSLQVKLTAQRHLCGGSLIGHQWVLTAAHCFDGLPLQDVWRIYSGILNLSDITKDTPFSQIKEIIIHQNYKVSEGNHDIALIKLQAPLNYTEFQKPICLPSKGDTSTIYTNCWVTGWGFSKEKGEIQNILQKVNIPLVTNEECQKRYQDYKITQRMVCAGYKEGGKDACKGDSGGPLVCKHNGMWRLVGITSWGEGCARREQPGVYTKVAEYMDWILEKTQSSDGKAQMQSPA
As to the kind of experiment: Enzyme inhibition assay (fluorogenic substrate H-Pro-Phe-Arg-AMC). To be noted: Kallikrein inhibitory activity; 1 nM activated human kallikrein, 500 μM H-Pro-Phe-Arg-AMC, 1 hour room temperature; read-out: Avg. IC50. Type of assay: biochemical. Here is the method:
Activated human plasma kallikrein (Enzyme Research Laboratories, HPKa 1303) was reacted with H-Pro-Phe-Arg-7-amido-4-methylcoumarin (H-Pro-Pre-Arg-AMC) (a fluorogenic substrate for plasma as well as pancreatic and urinary kallikreins; Bachem I-1295) and candidate inhibitory peptides to determine the IC50 of the inhibitor.
Ten 8-fold serial dilutions of peptides (10 mM DMSO stocks) were performed in DMSO and then added to TCNB (50 mM Tris-HCl pH 7.2, 150 mM NaCl, 10 mM CaCl2, 0.05% Brij-35) and sonicated. 50 μL of the peptide dilutions were added to microtitre plates (96 well, black non-binding surface, Corning, 3650) and incubated for 5 minutes at room temperature with 4 nM activated human kallikrein (final concentration after addition of fluorogenic substrate: 1 nM). The samples were then incubated for 1 hour at room temperature with 2 mM H-Pro-Phe-Arg-AMC (final concentration 500 μM). Relative Fluorescence Units (RFU) were measured at excitation/emission 360 nm/460 nm by a SpectraMax M3.
On to `CCC[C@H](N)C(=O)N[C@@H]1C(=O)N[C@@H](CCC(=O)O)C(=O)N[C@@H](CO)C(=O)N[C@@H]([C@@H](C)CC)C(=O)N[C@H](C(=O)N[C@@H](CCCNC(=N)N)C(=O)N[C@H](C(N)=O)C(C)C)C(C)(C)SCc2cccc(c2)CSC1(C)C` [Compound R2034, [mXylyl(2,6)]Nvl-Pen-ESI-Pen-RV-NH2] (H-[Nva][Pen]ESI[Pen]RV-NH2; linker 2-6 via mXylylene), for which the IC50 is more than 100000 nM.

As to `CC(C)(C)[C@H](NC(=O)[C@H](CCCNC(=N)N)NC(=O)[C@@H]1CSCc2cccc(c2)CSCCC(=O)N2CCC[C@H]2C(=O)NC(C2CCc3ccccc3C2)C(=O)N1)C(N)=O` (stereo partly shown) [Compound R2266] ([Mpa]P[X1]CR[Tle]-NH2; linker 1-4 via mXylylene), the IC50 stood at 118 nM.

Turning to `CC(C)C[C@H](NC(=O)[C@@H](NC(=O)[C@H](CCCNC(=N)N)NC(=O)[C@@H]1CSCc2cccc(c2)CSCCC(=O)N2CCC[C@H]2C(=O)N[C@@H](c2ccccc2)C(=O)N1)C(C)(C)C)C(=O)O` [Compound R2202, [mXylyl(1,4)](des-NH2)C-P-Phg-CR-Tbg-L-OH] ([Mpa]P[Phg]CR[Tle]L-OH; linker 1-4 via mXylylene), the IC50 came to 58.8 nM.

Take `CC[C@H](C)[C@@H]1NC(=O)[C@H](C)NC(=O)[C@H](C)NC(=O)CCSCc2cccc(c2)CSC[C@@H](C(=O)N[C@@H](CCCNC(=N)N)C(=O)N[C@H](C(N)=O)C(C)C)NC1=O` [Compound R2072, [mXylyl(1,5)](des-NH2)C-AAICRV-NH2] ([Mpa]AAICRV-NH2; linker 1-5 via mXylylene): the concentration for half-maximal inhibition (IC50) was found to be 13 nM.

In the case of `CC[C@@H](C)[C@@H]1NC(=O)CCCCCC/C=C/C[C@@H](C(=O)N[C@@H](CCCNC(=N)N)C(=O)N[C@H](C(N)=O)C(C)C)NC1=O` [Compound R2241], the IC50 is more than 75000 nM.

For `CC(C)(C)[C@H](NC(=O)[C@H](CCCNC(=N)N)NC(=O)[C@@H]1COCc2cn(nn2)CCCCC(=O)N2CCC[C@H]2C(=O)N[C@@H](C2CCCCC2)C(=O)N1)C(N)=O` [Compound R2252], the IC50 is more than 100000 nM.

With `CC(C)(C)[C@H](NC(=O)[C@H](CCCNC(=N)N)NC(=O)[C@@H]1CSCc2cccc(c2)CSCCC(=O)N2CCC[C@@]2(C)C(=O)N[C@@H](C2CCCCC2)C(=O)N1)C(N)=O` [Compound R2180, [mXylyl(1,4)](des-NH2)C-(a-Me)P-Chg-CR-Tbg-NH2] ([Mpa][αMeP][Chg]CR[Tle]-NH2; linker 1-4 via mXylylene), the IC50 came out at 6.8 nM.

With `CC[C@@H](C)[C@@H]1NC(=O)[C@@H]2CCCN2C(=O)CCCCCCCC/C=C/C[C@@H](C(=O)N[C@@H](CCCNC(=N)N)C(=O)N[C@H](C(N)=O)C(C)C)NC1=O` [Compound R2243], the IC50 is more than 50000 nM.

With `CSCC[C@H](N)C(=O)N[C@@H](CS)C(=O)N[C@@H](CC(N)=O)C(=O)N[C@@H](Cc1ccc(O)cc1)C(=O)N[C@@H](Cc1c[nH]c2ccccc12)C(=O)N[C@@H](CO)C(=O)N1CCC[C@H]1C(=O)N[C@@H](Cc1c[nH]c2ccccc12)C(=O)N[C@H](C(=O)N[C@@H](CCC(=O)O)C(=O)N[C@@H](CS)C(=O)N[C@@H](CO)C(N)=O)[C@@H](C)O` [Compound R2110, MCNYWSPWTECS-NH2] (H-MCNYWSPWTECS-NH2; N-terminus assumed), the IC50 came out at 3.5 nM.

For the molecule “MCNYWSP-NH2 [Compound R2115, MCNYWSP-NH2]”, the half-maximal inhibitory concentration (IC50) is more than 17300 nM.

Regarding `CC[C@@H](C)[C@@H]1NC(=O)[C@@H]2CCCN2C(=O)CCCCCC/C=C/C[C@@H](C(=O)N[C@@H](CCCNC(=N)N)C(=O)N[C@H](C(N)=O)C(C)C)NC1=O` [Compound R2245], the half-maximal inhibitory concentration (IC50) is more than 50000 nM.

With `C[C@@H]1NC(=O)C(C)(C)NC(=O)CCSCc2cccc(c2)CSC[C@@H](C(=O)N[C@@H](CCCNC(=N)N)C(=O)O)NC(=O)[C@H](C2CCCCC2)NC1=O` [Compound R2153, [mXylyl(1,5)](des-NH2)C-Aib-A-Chg-CR-OH] ([Mpa][Aib]A[Chg]CR-OH; linker 1-5 via mXylylene), the half-inhibitory concentration (IC50) is more than 8880 nM.

Consider `CC(=O)N[C@H](C(=O)N[C@H]1CSCc2cccc(c2)CSC[C@@H](C(N)=O)NC(=O)[C@@H]2CCCN2C(=O)[C@H](C(C)C)NC(=O)[C@H](CCCNC(=N)N)NC1=O)C1CCCCC1` [Compound R2160, [mXylyl(2,6)]Ac-Chg-CR-V-PC-NH2] (Ac-[Chg]CRVPC-NH2; linker 2-6 via mXylylene), for which the IC50 was more than 100000 nM.

Turning to `CC(C)(C)[C@H](NC(=O)[C@H](CCCNC(=N)N)NC(=O)[C@@H]1CCCc2cn(nn2)CCCCC(=O)N2CCC[C@H]2C(=O)N[C@@H](C2CCCCC2)C(=O)N1)C(N)=O` [Compound R2253], the half-maximal inhibitory concentration (IC50) is more than 100000 nM.

As to `CC(C)(C)[C@H](NC(=O)[C@H](CCCNC(=N)N)NC(=O)[C@@H]1CCCn2cc(nn2)CCCCCC(=O)N2CCC[C@H]2C(=O)N[C@@H](C2CCCCC2)C(=O)N1)C(N)=O` [Compound R2250], the concentration for half-maximal inhibition (IC50) is more than 100000 nM.

For the molecule “Ac-ANYWSPWTAA-NH2 [Compound R2145, Ac-ANYWSPWTAA-NH2]”, the half-maximal inhibitory concentration (IC50) was 58.8 nM.

As for `CC(=O)N[C@@H](CS)C(=O)N[C@@H](CC(N)=O)C(=O)N[C@@H](Cc1ccc(O)cc1)C(=O)N[C@@H](Cc1c[nH]c2ccccc12)C(=O)N[C@@H](C)C(=O)N1CCC[C@H]1C(=O)N[C@@H](Cc1c[nH]c2ccccc12)C(=O)N[C@H](C(=O)N[C@@H](CCC(=O)O)C(=O)N[C@@H](CS)C(N)=O)[C@@H](C)O` [Compound R2131, Ac-CNYWAPWTEC-NH2] (Ac-CNYWAPWTEC-NH2), the half-maximal inhibitory concentration (IC50) came out at 127 nM.

With `CNC(=O)[C@@H](NC(=O)[C@H](CCCNC(=N)N)NC(=O)[C@@H]1CSCc2cccc(c2)CSCCC(=O)NC2(CCCC2)C(=O)N[C@@H](C)C(=O)N[C@@H](C2CCCCC2)C(=O)N1)C(C)C` [Compound R2178, [mXylyl(1,5)](des-NH2)C-(Cyclo-L)-A-Chg-CR-V-NHCH3] ([Mpa][Ac5c]A[Chg]CRV-NHMe; linker 1-5 via mXylylene), the half-maximal inhibitory concentration (IC50) was 3.2 nM.

For `CC(C)(C)[C@H](NC(=O)C(Cc1ccc(Br)s1)NC(=O)[C@@H]1CSCc2cccc(c2)CSCCC(=O)N2CCC[C@H]2C(=O)N[C@H](c2ccccc2)C(=O)N1)C(N)=O` (stereo partly drawn) [Compound R2220, [mXylyl(1,4)](des-NH2)C-P-(D-Phg)-C-ABP-Tbg-NH2] ([Mpa]P[dPhg]C[X3][Tle]-NH2; linker 1-4 via mXylylene), the half-inhibitory concentration (IC50) was more than 100000 nM.

For `CC(C)(C)[C@H](NC(=O)[C@H](CCCNC(=N)N)NC(=O)[C@@H]1CSCc2cccc(c2)CSCCC(=O)N2CCC[C@H]2C(=O)N[C@H](c2ccccc2)C(=O)N1)C(N)=O` [Compound R2187, [mXylyl(1,4)](des-NH2)C-P-(D)Phg-CR-Tbg-NH2] ([Mpa]P[dPhg]CR[Tle]-NH2; linker 1-4 via mXylylene), the IC50 was more than 4700 nM.

Consider “Ac-CNYWSPWTEA-NH2 [Compound R2127, Ac-CNYWSPWTEA-NH2]”, for which the IC50 was 35.6 nM.

Take `CC(C)(C)[C@H](NC(=O)[C@H](CCCNC(=N)N)NC(=O)[C@@H]1CSCc2cccc(c2)CSCCC(=O)N2CCC[C@H]2C(=O)N[C@@H](c2ccccc2)C(=O)N1)C(N)=O` [Compound R2188, [mXylyl(1,4)](des-NH2)C-P-Phg-CR-Tbg-NH2] ([Mpa]P[Phg]CR[Tle]-NH2; linker 1-4 via mXylylene): the IC50 amounted to 3.4 nM.
